{"source": "patent US10206904B2", "about": "“Licofelone derivatives and methods of use” (The Board of Regents of the University of Oklahoma, priority 2015, dated 2019)", "key": {"5-LOX": {"biological_target": "5-LOX (Rattus norvegicus, UniProt P12527)", "sequence (P12527 whole entry)": "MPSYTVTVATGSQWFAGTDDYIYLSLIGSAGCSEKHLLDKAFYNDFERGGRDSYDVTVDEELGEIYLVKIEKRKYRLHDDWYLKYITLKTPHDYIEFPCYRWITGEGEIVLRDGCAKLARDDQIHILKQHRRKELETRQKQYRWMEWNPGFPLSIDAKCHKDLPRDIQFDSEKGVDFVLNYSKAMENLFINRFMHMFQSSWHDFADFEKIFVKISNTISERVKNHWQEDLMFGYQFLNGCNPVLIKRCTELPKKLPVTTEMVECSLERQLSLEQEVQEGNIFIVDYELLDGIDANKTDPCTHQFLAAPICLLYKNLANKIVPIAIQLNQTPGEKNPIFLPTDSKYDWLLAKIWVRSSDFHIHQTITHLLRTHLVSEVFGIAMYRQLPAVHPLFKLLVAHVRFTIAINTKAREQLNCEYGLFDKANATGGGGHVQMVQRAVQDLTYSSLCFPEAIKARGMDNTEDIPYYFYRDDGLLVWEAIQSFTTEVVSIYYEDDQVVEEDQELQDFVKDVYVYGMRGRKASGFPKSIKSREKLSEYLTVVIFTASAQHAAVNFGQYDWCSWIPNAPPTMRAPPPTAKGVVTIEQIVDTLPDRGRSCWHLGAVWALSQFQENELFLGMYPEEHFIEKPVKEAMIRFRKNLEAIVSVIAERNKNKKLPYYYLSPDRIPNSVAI", "settings": "ex vivo colon tumor homogenate", "experimental": "(§1) Briefly, colonic tubular adenocarcinomas (ACs) were homogenized in 100 mM Tris-HCl buffer. […] Reaction mixture incubated for 20 min and ^14C-PGE2, 5-^14C-HETE and other 14-C metabolites were extracted and analyzed by Radio-HPLC according to the previously published work."}, "COX-1/2": {"test_system": "COX-1/2", "settings": "ex vivo colon tumor homogenate", "experimental": "as §1"}, "mPGES-1": {"biological_target": "mPGES-1 (Rattus norvegicus, UniProt Q9JHF3)", "sequence (Q9JHF3 whole entry)": "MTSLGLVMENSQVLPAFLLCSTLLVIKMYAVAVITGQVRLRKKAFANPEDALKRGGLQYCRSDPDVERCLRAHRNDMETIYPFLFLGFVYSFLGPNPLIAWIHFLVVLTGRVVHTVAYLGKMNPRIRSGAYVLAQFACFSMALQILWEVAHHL", "settings": "ex vivo colon tumor homogenate", "experimental": "as §1"}, "AOM-induced colon tumors": {"test_system": "AOM-induced colon tumors", "settings": "AOM-treated male F344 rats", "experimental": "After 42 weeks of experimental diet feeding and total 52 weeks of experimental duration, the rats were necropsied. After necropsy of the rats, the colonic tumors were analyzed histologically. Histopathological evaluation colonic tumor has been completed by two pathologists independently. Colonic tumors were histopathologically classified to adenomas or adenocarcinomas either exophytic (non-invasive) or endophytic (invasive).\nColonic tumors (CTs) were induced by colon specific carcinogen, azoxymethane (AOM) (15 mg/kg by wt, once weekly for 2 weeks) in F344 rats at 8 weeks' age. […] Rats were killed by CO2 asphyxiation 36 weeks after second AOM and the colons were removed, rinsed in PBS, opened longitudinally, and flattened on a filter paper. The location and size of each tumor were noted. Tumors were removed, snap frozen, or fixed in 10% buffered formalin for 24 hours and transferred to 80% ethanol for histopathological analysis. The number and type of colon tumors (adenoma and adenocarcinoma) were analyzed histologically blinded to treatment groups and compared with control diet fed rat colonic tumors."}}, "note": "“And” between values parts separate entries of the source, which are not always exact repeats. Equal values may be shown once. Read-outs that look alike come from different tables or passages of the source.", "data": [{"molecule": "CC1(C)Cc2c(-c3ccccc3)c(-c3ccc(Cl)cc3)c(CC(=O)NCC(=O)O)n2C1", "note": "[LFA-9, licofelone-glycine]", "values": [{"measurement": "% of Inhibition from control, 5LOX (5-14C-HETE from 14C-AA)", "setting": "5-LOX; 2.5 μM", "value": 27, "unit": "%"}, {"measurement": "% of Inhibition from control, 5LOX (5-14C-HETE from 14C-AA)", "setting": "5-LOX; 5.0 μM", "value": 49, "unit": "%"}, {"measurement": "% of Inhibition from control, 5LOX (5-14C-HETE from 14C-AA)", "setting": "5-LOX; 7.5 μM", "value": 68, "unit": "%"}, {"measurement": "% of Inhibition from control, 5LOX (5-14C-HETE from 14C-AA)", "setting": "5-LOX; 10 μM", "value": 89, "unit": "%"}, {"measurement": "% of Inhibition from control, 5LOX (5-14C-HETE from 14C-AA)", "setting": "5-LOX; 20 μM", "value": 97, "unit": "%"}, {"measurement": "% of Inhibition from control, COX-1/2 (14C-PGs and TXs from 14C-AA)", "setting": "COX-1/2; 2.5 μM", "value": 4, "unit": "%"}, {"measurement": "% of Inhibition from control, COX-1/2 (14C-PGs and TXs from 14C-AA)", "setting": "COX-1/2; 5.0 μM", "value": 9, "unit": "%"}, {"measurement": "% of Inhibition from control, COX-1/2 (14C-PGs and TXs from 14C-AA)", "setting": "COX-1/2; 10 μM", "value": 31, "unit": "%"}, {"measurement": "% of Inhibition from control, COX-1/2 (14C-PGs and TXs from 14C-AA)", "setting": "COX-1/2; 20 μM", "value": 58, "unit": "%"}, {"measurement": "% of Inhibition from control, mPGES-1 (14C-PGE2 from 14C-PGH2)", "setting": "mPGES-1; 2.5 μM", "value": 18, "unit": "%"}, {"measurement": "% of Inhibition from control, mPGES-1 (14C-PGE2 from 14C-PGH2)", "setting": "mPGES-1; 5.0 μM", "value": 32, "unit": "%"}, {"measurement": "% of Inhibition from control, mPGES-1 (14C-PGE2 from 14C-PGH2)", "setting": "mPGES-1; 7.5 μM", "value": 57, "unit": "%"}, {"measurement": "% of Inhibition from control, mPGES-1 (14C-PGE2 from 14C-PGH2)", "setting": "mPGES-1; 10 μM", "value": 78, "unit": "%"}, {"measurement": "% of Inhibition from control, mPGES-1 (14C-PGE2 from 14C-PGH2)", "setting": "mPGES-1; 20 μM", "value": 83, "unit": "%"}, {"measurement": "% AdCA Inhibition (incidence)", "setting": "AOM-induced colon tumors; 200 ppm in diet", "value": 60, "unit": "%"}, {"measurement": "% AdCA Inhibition (multiplicity)", "setting": "AOM-induced colon tumors; 200 ppm in diet", "value": 77, "unit": "%"}, {"measurement": "% Inv AdCA Inhibition (incidence)", "setting": "AOM-induced colon tumors; 200 ppm in diet", "value": 85.1, "unit": "%"}, {"measurement": "% Inv AdCA Inhibition (multiplicity)", "setting": "AOM-induced colon tumors; 200 ppm in diet", "value": 86.0, "unit": "%"}, {"measurement": "% Non-Inv AdCA Inhibition (incidence)", "setting": "AOM-induced colon tumors; 200 ppm in diet", "value": 63.0, "unit": "%"}, {"measurement": "% Non-Inv AdCA Inhibition (multiplicity)", "setting": "AOM-induced colon tumors; 200 ppm in diet", "value": 72.9, "unit": "%"}, {"measurement": "% adenoma Inhibition (incidence)", "setting": "AOM-induced colon tumors; 200 ppm in diet", "value": 53, "unit": "%"}, {"measurement": "% adenoma Inhibition (multiplicity)", "setting": "AOM-induced colon tumors; 200 ppm in diet", "value": "38.3% and 38.27%"}, {"measurement": "% of CRC Tumor Inhibition (incidence)", "setting": "AOM-induced colon tumors; 200 ppm in diet", "value": 47.5, "unit": "%"}, {"measurement": "% of CRC Tumor Inhibition (multiplicity)", "setting": "AOM-induced colon tumors; 200 ppm in diet", "value": "64% and 64.05%"}, {"measurement": "AdCA Incidence (% Rats with AdCa)", "setting": "AOM-induced colon tumors; 200 ppm in diet", "value": "(33.3%)"}, {"measurement": "AdCA Incidence (rats with AdCa/rats)", "setting": "AOM-induced colon tumors; 200 ppm in diet", "value": "10/30"}, {"measurement": "AdCA Multiplicity (Mean ± SEM)", "setting": "AOM-induced colon tumors; 200 ppm in diet", "value": "0.37±0.07", "unit": "Tumors/Rat"}, {"measurement": "Adenoma Incidence (% Rats with Adenomas)", "setting": "AOM-induced colon tumors; 200 ppm in diet", "value": "(30.0%)"}, {"measurement": "Adenoma Incidence (rats with adenomas/rats)", "setting": "AOM-induced colon tumors; 200 ppm in diet", "value": "9/30"}, {"measurement": "Adenoma Multiplicity (Mean ± SEM)", "setting": "AOM-induced colon tumors; 200 ppm in diet", "value": "0.50±0.07", "unit": "Tumors/Rat"}, {"measurement": "Invasive AdCA Incidence (% Rats with Invasive AdCa)", "setting": "AOM-induced colon tumors; 200 ppm in diet", "value": "(6.66%)"}, {"measurement": "Invasive AdCA Incidence (rats with Invasive AdCa/rats)", "setting": "AOM-induced colon tumors; 200 ppm in diet", "value": "2/30"}, {"measurement": "Invasive AdCA Multiplicity (Mean ± SEM)", "setting": "AOM-induced colon tumors; 200 ppm in diet", "value": "0.07 ± 0.02", "unit": "Tumors/Rat"}, {"measurement": "Multiplicity Total CRC Tumors (Adenoma + AdCa) (Mean ± SEM)", "setting": "AOM-induced colon tumors; 200 ppm in diet", "value": "0.87 ± 0.12", "unit": "Tumors/Rat"}, {"measurement": "Non-Inv AdCa Incidence (% Rats with Non-Inv AdCa)", "setting": "AOM-induced colon tumors; 200 ppm in diet", "value": "(26.7%)"}, {"measurement": "Non-Inv AdCa Incidence (rats with Non-Inv AdCa/rats)", "setting": "AOM-induced colon tumors; 200 ppm in diet", "value": "8/30"}, {"measurement": "Non-Inv AdCa Multiplicity (Mean ± SEM)", "setting": "AOM-induced colon tumors; 200 ppm in diet", "value": "0.30 ± 0.05", "unit": "Tumors/Rat"}, {"measurement": "Total CRC Tumors (Adenoma + AdCa) incidence (% rats)", "setting": "AOM-induced colon tumors; 200 ppm in diet", "value": "(46.6%)"}, {"measurement": "Total CRC Tumors (Adenoma + AdCa) incidence (rats with tumors/rats)", "setting": "AOM-induced colon tumors; 200 ppm in diet", "value": "14/30"}, {"measurement": "% AdCA Inhibition (incidence)", "setting": "AOM-induced colon tumors; 400 ppm in diet", "value": 67.9, "unit": "%"}, {"measurement": "% AdCA Inhibition (multiplicity)", "setting": "AOM-induced colon tumors; 400 ppm in diet", "value": 81.3, "unit": "%"}, {"measurement": "% Inv AdCA Inhibition (incidence)", "setting": "AOM-induced colon tumors; 400 ppm in diet", "value": 77.4, "unit": "%%"}, {"measurement": "% Inv AdCA Inhibition (multiplicity)", "setting": "AOM-induced colon tumors; 400 ppm in diet", "value": 80.0, "unit": "%"}, {"measurement": "% Non-Inv AdCA Inhibition (incidence)", "setting": "AOM-induced colon tumors; 400 ppm in diet", "value": 72.3, "unit": "%"}, {"measurement": "% Non-Inv AdCA Inhibition (multiplicity)", "setting": "AOM-induced colon tumors; 400 ppm in diet", "value": 82.0, "unit": "%"}, {"measurement": "% adenoma Inhibition (incidence)", "setting": "AOM-induced colon tumors; 400 ppm in diet", "value": 53, "unit": "%"}, {"measurement": "% adenoma Inhibition (multiplicity)", "setting": "AOM-induced colon tumors; 400 ppm in diet", "value": 46.9, "unit": "%"}, {"measurement": "% of CRC Tumor Inhibition (incidence)", "setting": "AOM-induced colon tumors; 400 ppm in diet", "value": "55.5% and 55.0%"}, {"measurement": "% of CRC Tumor Inhibition (multiplicity)", "setting": "AOM-induced colon tumors; 400 ppm in diet", "value": "69.1% and 69.08%"}, {"measurement": "AdCA Incidence (% Rats with AdCa)", "setting": "AOM-induced colon tumors; 400 ppm in diet", "value": "(26.7%)"}, {"measurement": "AdCA Incidence (rats with AdCa/rats)", "setting": "AOM-induced colon tumors; 400 ppm in diet", "value": "8/30"}, {"measurement": "AdCA Multiplicity (Mean ± SEM)", "setting": "AOM-induced colon tumors; 400 ppm in diet", "value": "0.30±0.07", "unit": "Tumors/Rat"}, {"measurement": "Adenoma Incidence (% Rats with Adenomas)", "setting": "AOM-induced colon tumors; 400 ppm in diet", "value": "(30.0%)"}, {"measurement": "Adenoma Incidence (rats with adenomas/rats)", "setting": "AOM-induced colon tumors; 400 ppm in diet", "value": "9/30"}, {"measurement": "Adenoma Multiplicity (Mean ± SEM)", "setting": "AOM-induced colon tumors; 400 ppm in diet", "value": "0.43±0.06", "unit": "Tumors/Rat"}, {"measurement": "Invasive AdCA Incidence (% Rats with Invasive AdCa)", "setting": "AOM-induced colon tumors; 400 ppm in diet", "value": "(10.0%)"}, {"measurement": "Invasive AdCA Incidence (rats with Invasive AdCa/rats)", "setting": "AOM-induced colon tumors; 400 ppm in diet", "value": "3/30"}, {"measurement": "Invasive AdCA Multiplicity (Mean ± SEM)", "setting": "AOM-induced colon tumors; 400 ppm in diet", "value": "0.10 ± 0.02", "unit": "Tumors/Rat"}, {"measurement": "Multiplicity Total CRC Tumors (Adenoma + AdCa) (Mean ± SEM)", "setting": "AOM-induced colon tumors; 400 ppm in diet", "value": "0.73 ± 0.10", "unit": "Tumors/Rat"}, {"measurement": "Non-Inv AdCa Incidence (% Rats with Non-Inv AdCa)", "setting": "AOM-induced colon tumors; 400 ppm in diet", "value": "(20.0%)"}, {"measurement": "Non-Inv AdCa Incidence (rats with Non-Inv AdCa/rats)", "setting": "AOM-induced colon tumors; 400 ppm in diet", "value": "6/30"}, {"measurement": "Non-Inv AdCa Multiplicity (Mean ± SEM)", "setting": "AOM-induced colon tumors; 400 ppm in diet", "value": "0.20 ± 0.04", "unit": "Tumors/Rat"}, {"measurement": "Total CRC Tumors (Adenoma + AdCa) incidence (% rats)", "setting": "AOM-induced colon tumors; 400 ppm in diet", "value": "(40.0%)"}]}]}
